Where a name gives a salt, the structure may show the parent alone.

Sequence of postsynaptic muscarinic cholinergic receptors (bladder detrusor muscle) (H0W1Z3 1-590): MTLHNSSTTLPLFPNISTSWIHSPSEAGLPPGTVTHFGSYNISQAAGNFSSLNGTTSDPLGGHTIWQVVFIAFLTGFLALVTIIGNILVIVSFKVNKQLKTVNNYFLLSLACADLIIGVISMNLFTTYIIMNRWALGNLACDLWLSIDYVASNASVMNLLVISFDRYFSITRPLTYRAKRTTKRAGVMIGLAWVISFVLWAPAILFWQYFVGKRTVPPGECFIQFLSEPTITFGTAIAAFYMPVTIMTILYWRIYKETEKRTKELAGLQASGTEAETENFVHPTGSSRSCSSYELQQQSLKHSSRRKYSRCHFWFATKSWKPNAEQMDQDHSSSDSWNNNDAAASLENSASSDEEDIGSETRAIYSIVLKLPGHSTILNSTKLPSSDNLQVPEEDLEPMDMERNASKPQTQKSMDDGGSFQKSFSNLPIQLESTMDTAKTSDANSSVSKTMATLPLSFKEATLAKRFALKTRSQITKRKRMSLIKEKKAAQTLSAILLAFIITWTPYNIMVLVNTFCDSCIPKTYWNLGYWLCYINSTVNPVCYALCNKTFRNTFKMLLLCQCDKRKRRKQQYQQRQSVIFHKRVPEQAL

One assay relates to bladder contraction (PvesP).
Test: not given
Particulars: guinea pig, in vivo, iv.
As to `CN1CCN(CC(=O)C(O)(c2ccccc2)C2CCCCC2)CC1` (centres unmarked) [1-Cyclohexyl-1-hydroxy-3-(4-methyl-1-piperazinyl)-1-phenyl-2-propanone], the “T1/2 for recovery toward control level of the PvesP contraction strength parameter” value was found to be 3.6 ± 0.3 h.

A further assay has as its target postsynaptic muscarinic cholinergic receptors (bladder detrusor muscle) (Cavia porcellus, UniProt H0W1Z3). The experiment in a line: cell-based. Further details: species or system guinea pig.
Conditions: not given
As to `O=C(CN1CCNCC1)C(O)(c1ccccc1)C1CCC1` (centres unmarked) [1-Cyclobutyl-1-hydroxy-1-phenyl-3-piperazinyl-2-propanone Dihydrochloride], the Kb worked out at 86 nM.
Still for that read-out and setting: as for `CCOC(=O)N1CCN(CC(=O)C(O)(c2ccccc2)C2CCC2)CC1.Cl` (centres unmarked) [1-Cyclobutyl-1-hydroxy-3-(4-ethoxycarbonyl-1-piperazinyl)-1-phenyl-2-propanone Hydrochloride], the entry is “No Effect at 1 μM”.
On the same count and under the same terms, under `Cl.Cl.O=C(CN1CCN(c2ccccc2)CC1)C(O)(c1ccccc1)C1CCC1` (centres unmarked) [1-Cyclobutyl-1-hydroxy-3-(4-phenyl-1-piperazinyl)-1-phenyl-2-propanone Dihydrochloride] stands “No Effect at 1 μM”; under `O=C(CN1CCN(CCO)CC1)C(O)(c1ccccc1)C1CCCCC1` (centres unmarked) [1-Cyclohexyl-1-hydroxy-3-[4-(2-hydroxyethyl)-1-piperazinyl]-1-phenyl-2-propanone Dihydrochloride], 96 nM; under `CN1CCN(CC(=O)C(O)(c2ccccc2)C2CCCCC2)CC1` (centres unmarked) [1-Cyclohexyl-1-hydroxy-3-(4-methyl-1-piperazinyl)-1-phenyl-2-propanone], 25.9 ± 5.3 nM.
The same measure, in the same setting: under `C=CCCN1CCN(CC(=O)C(O)(c2ccccc2)C2CCC2)CC1` (centres unmarked) [1-Cyclobutyl-1-hydroxy-3-[4-(3-butenyl)-1-piperazinyl]-1-phenyl-2-propanoneDihydrochloride] stands 35 nM; under `O=C(CN1CCN(CCO)CC1)C(O)(c1ccccc1)C1CCC1` (centres unmarked) [1-Cyclobutyl-1-hydroxy-3-[4-(2-hydroxyethyl)-1-piperazinyl]-1-phenyl-2-propanone Dihydrochloride], 201 nM.
Regarding `Cc1ccc(CN2CCN(CC(=O)C(O)(c3ccccc3)C3CCC3)CC2)cc1` (centres unmarked) [1-Cyclobutyl-1-hydroxy-3-[4-(4-methylbenzyl)-]1-piperazinyl]-1-phenyl-2-propanone Dihydrochloride], the Kb was determined as 9.1 nM.
`O=C(CN1CCN(Cc2ccc([N+](=O)[O-])cc2)CC1)C(O)(c1ccccc1)C1CCC1` (centres unmarked) [1-Cyclobutyl-1-hydroxy-3-[4-(4-nitrobenzyl)-1-piperazinyl]-1-phenyl-2-propanone Dihydrochloride] showed a Kb of 83 nM.
On the same count and under the same terms, under `O=C(CN1CCN(C2CCC2)CC1)C(O)(c1ccccc1)C1CCC1` (centres unmarked) [1-Cyclobutyl-1-hydroxy-3-(4-cyclobutyl-1-piperazinyl)-1-phenyl-2-propanone Dihydrochloride] stands 230 nM; under `COc1ccccc1N1CCN(CC(=O)C(O)(c2ccccc2)C2CCC2)CC1.Cl.Cl` (centres unmarked) [1-Cyclobutyl-1-hydroxy-3-[4-(2-methoxyphenyl)-1-piperazinyl]-1-phenyl-2-propanone Dihydrochloride], “No Effect at 1 μM”.
Same read-out and setting: as for `C=C(C)CN1CCN(CC(=O)C(O)(c2ccccc2)C2CCC2)CC1` (centres unmarked) [1-Cyclobutyl-1-hydroxy-3-[4-(2-methyl-2-propenyl)-1-piperazinyl]1-phenyl-2-propanone Dihydrochloride], the figure is 100 nM.
Same read-out and setting: under `O=C(CN1CCN(C(c2ccccc2)c2ccccc2)CC1)C(O)(c1ccccc1)C1CCC1` (centres unmarked) [1-Cyclobutyl-1-hydroxy-3-(4-benzyhydryl-1-piperazinyl)-1-phenyl-2-propanoneDihydrochloride] stands “No Effect at 1 μM”; under `O=C(CN1CCN(CC(=O)C(O)(c2ccccc2)C2CCC2)CC1)N1CCCC1` (centres unmarked) [1-Cyclobutyl-1-hydroxy-3-(4-pyrrolidino-carbonylmethyl-1-piperazinyl)-1-phenyl-2-propanone Dihydrochloride], 210 nM; under `C=CCN1CCN(CC(=O)C(O)(c2ccccc2)C2CCC2)CC1` (centres unmarked) [1-Cyclobutyl-1-hydroxy-3-(4-allyl-1-piperazinyl)-1-phenyl-2-propanone Dihydrochloride], 65 nM.
As to `C=CCN1CCN(CC(=O)C(O)(c2ccccc2)C2CCCCC2)CC1` (centres unmarked) [1-Cyclohexyl-1-hydroxy-3-(4-allyl-1-piperazinyl)-1-phenyl-2-propanone Dihydrochloride], the Kb is 26 nM.
On the same count and under the same terms, under `O=C(CN1CCN(Cc2ccc(Cl)cc2)CC1)C(O)(c1ccccc1)C1CCC1` (centres unmarked) [1-Cyclobutyl-1-hydroxy-3-[4-(4-chlorobenzyl)-]1-piperazinyl]-1-phenyl-2-propanone Dihydrochloride] stands 16 nM.
On the same count and under the same terms, as for `CCOc1ccccc1N1CCN(CC(=O)C(O)(c2ccccc2)C2CCC2)CC1.Cl.Cl` (centres unmarked) [1-Cyclobutyl-1-hydroxy-3-[4-(2-ethoxyphenyl)-1-piperazinyl]-1-phenyl-2-propanone Dihydrochloride], the entry is “No Effect at 1 μM”; as for `CC(C)=CCN1CCN(CC(=O)C(O)(c2ccccc2)C2CCC2)CC1` (centres unmarked) [1-Cyclobutyl-1-hydroxy-3-[4-(3-methyl-2-butenyl)-1-piperazinyl]-1-phenyl-2-propanone Dihydrochloride], 19 nM; as for `CCCN1CCN(CC(=O)C(O)(c2ccccc2)C2CCC2)CC1` (centres unmarked) [1-Cyclobutyl-1-hydroxy-3-(4-propyl-1-piperazinyl)-1-phenyl-2-propanone Dihydrochloride], 673 nM.
The same measure, in the same setting: under `Cl.Cl.O=C(CN1CCN(c2ccc([N+](=O)[O-])cc2)CC1)C(O)(c1ccccc1)C1CCC1` (centres unmarked) [1-Cyclobutyl-1-hydroxy-3-[4-(4-nitrophenyl)-1-piperazinyl]-1-phenyl-2-propanone Dihydrochloride] stands “No Effect at 1 μM”; under `CN1CCN(CC(=O)C(O)(c2ccccc2)C2CCC2)CC1` (centres unmarked) [1-Cyclobutyl-1-hydroxy-3-(4-methyl-1-piperazinyl)-1-phenyl-2-propanone Dihydrochloride], 24.9 nM.

For the origin of these results see patent US5001160A (priority 1989, dated 1991).
